Measurements as given in US12655116B2, “Substituted isophthalic acid diamides” (Bayer Aktiengesellschaft, priority 2020, dated 2026).

Assays:
[1] = test system: ABUTH; test: Pre-emergence herbicidal action against ABUTH; format: in vivo, Abutilon theophrasti; conditions: Abutilon theophrasti, 504 h; for pest or weed control at 80 g/ha: scored visually after 3 weeks vs untreated controls (100% = plants have died, 0% = like control plants); for pest or weed control at 20 g/ha: dosage 20 g/ha, scored visually after 3 weeks vs untreated controls, 100% = plants have died, 0% = like control plants, read-out: Pre-emergence action against ABUTH (herbicidal activity in percent)
In short: (§1)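 Pre-emergence soil-surface spray of formulated compound (WP or EC; 600 to 800 l/ha; 0.2% wetting agent) over seeds sown in sandy loam. After 3 weeks under greenhouse conditions, damage is estimated visually in percent against untreated plants.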

[2] = test system: ALOMY; test: Pre-emergence herbicidal action against ALOMY; format: in vivo, Alopecurus myosuroides; conditions: Alopecurus myosuroides, 504 h, pre-emergence; for pest or weed control at 80 g/ha: scored visually after 3 weeks vs untreated controls (100% = plants have died, 0% = like control plants)
In short: as §1

[3] = test system: AMARE; test: Pre-emergence herbicidal action against AMARE; format: in vivo, Amaranthus retroflexus; conditions: Amaranthus retroflexus, 504 h, scored visually after 3 weeks vs untreated controls, 100% = plants have died, 0% = like control plants
In short: as §1

[4] = test system: ECHCG; test: Pre-emergence herbicidal action against ECHCG; format: in vivo, Echinochloa crus-galli; conditions: Echinochloa crus-galli, 504 h, 80 g/ha
In short: as §1

[5] = test system: LOLRI; test: Pre-emergence herbicidal action against LOLRI; format: in vivo, Lolium rigidum; conditions: Lolium rigidum, 504 h, 80 g/ha
In short: as §1

[6] = test system: MATIN; test: Pre-emergence herbicidal action against MATIN; format: in vivo, Matricaria inodora; conditions: Tripleurospermum inodorum, 504 h; for pest or weed control at 20 g/ha: dosage 20 g/ha; for pest or weed control at 80 g/ha: dosage 80 g/ha
In short: as §1

[7] = test system: PHBPU; test: Pre-emergence herbicidal action against PHBPU; format: in vivo, Pharbitis purpurea; conditions: Ipomoea purpurea, 504 h, dosage 80 g/ha
In short: as §1

[8] = test system: POLCO; test: Pre-emergence herbicidal action against POLCO; format: in vivo, Polygonum convolvulus; conditions: Fallopia convolvulus, 504 h, dosage 80 g/ha
In short: as §1

[9] = test system: SETVI; test: Pre-emergence herbicidal action against SETVI; format: in vivo, Setaria viridis; conditions: Setaria viridis, 504 h; for pest or weed control at 80 g/ha: dosage 80 g/ha
In short: as §1

[10] = test system: VERPE; test: Pre-emergence herbicidal action against VERPE; format: in vivo, Veronica persica; conditions: Veronica persica, 504 h; for pest or weed control at 20 g/ha: dosage 20 g/ha; for pest or weed control at 80 g/ha: dosage 80 g/ha
In short: as §1

[11] = test system: VIOTR; test: Pre-emergence herbicidal action against VIOTR; format: in vivo, Viola tricolor; conditions: Viola tricolor, 504 h; for pest or weed control at 20 g/ha: dosage 20 g/ha; for pest or weed control at 80 g/ha: dosage 80 g/ha
In short: as §1

[12] = test system: DIGSA; test: Pre-emergence herbicidal action against DIGSA; format: in vivo, Digitaria sanguinalis; conditions: Digitaria sanguinalis, 504 h; for pest or weed control at 20 g/ha: dosage 20 g/ha; for pest or weed control at 80 g/ha: dosage 80 g/ha
In short: as §1

[13] = test system: ABUTH; test: Post-emergence herbicidal action against ABUTH; format: in vivo, Abutilon theophrasti; conditions: Abutilon theophrasti, 504 h, visual assessment about 3 weeks after treatment vs untreated controls; for pest or weed control at 5 g/ha: dosage 5 g/ha; for pest or weed control at 20 g/ha: dosage 20 g/ha
In short: (§2)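 Spray, one-leaf stage: WP or EC compound in water, 600–800 l/ha, 0.2% wetting agent. Plants held about 3 weeks in the greenhouse, then visually rated in percent of kill compared with untreated controls.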

[14] = test system: ALOMY; test: Post-emergence herbicidal action against ALOMY; format: in vivo, Alopecurus myosuroides; conditions: Alopecurus myosuroides, 504 h, visual assessment about 3 weeks after treatment vs untreated controls; for pest or weed control at 5 g/ha: dosage 5 g/ha; for pest or weed control at 20 g/ha: dosage 20 g/ha
In short: as §2

[15] = test system: AMARE; test: Post-emergence herbicidal action against AMARE; format: in vivo, Amaranthus retroflexus; conditions: Amaranthus retroflexus, 504 h, 20 g/ha, visual assessment about 3 weeks after treatment, 100% = plants have died, 0% = like control plants
In short: as §2

[16] = test system: AVEFA; test: Post-emergence herbicidal action against AVEFA; format: in vivo, Avena fatua; conditions: Avena fatua, 504 h, visual assessment about 3 weeks after treatment, 100% = plants have died, 0% = like control plants
In short: as §2

[17] = test system: ECHCG; test: Post-emergence herbicidal action against ECHCG; format: in vivo, Echinochloa crus-galli; conditions: Echinochloa crus-galli, 504 h; for pest or weed control at 20 g/ha: dosage 20 g/ha
In short: as §2

[18] = test system: LOLRI; test: Post-emergence herbicidal action against LOLRI; format: in vivo, Lolium rigidum; conditions: Lolium rigidum, 504 h, dosage 20 g/ha
Description: Seeds of monocotyledonous and dicotyledonous weed and crop plants are laid out in sandy loam soil in wood-fiber pots, covered with soil and cultivated in a greenhouse under good growth conditions. 2 to 3 weeks after sowing, the test plants are treated at the one-leaf stage. The compounds of the invention, formulated in the form of wettable powders (WP) or as emulsion concentrates (EC), are then sprayed onto the green parts of the plants in the form of an aqueous suspension or emulsion at a water application rate equivalent to 600 to 800 l/ha, with addition of 0.2% wetting agent. After the test plants have been left to stand in the greenhouse under optimal growth conditions for about 3 weeks, the action of the preparations is assessed visually in comparison to untreated controls (herbicidal action in percent (%): 100% activity=the plants have died, 0% activity=like control plants). […] The tables below illustrate, in an illustrative manner, the post-emergence herbicidal action of the compounds of the invention, the herbicidal activity being stated in percent.

[19] = test system: MATIN; test: Post-emergence herbicidal action against MATIN; format: in vivo, Matricaria inodora; conditions: Tripleurospermum inodorum, 504 h; for pest or weed control at 20 g/ha: dosage 20 g/ha
In short: as §2

[20] = test system: PHBPU; test: Post-emergence herbicidal action against PHBPU; format: in vivo, Pharbitis purpurea; conditions: Ipomoea purpurea, 504 h; for pest or weed control at 5 g/ha: dosage 5 g/ha; for pest or weed control at 20 g/ha: dosage 20 g/ha
In short: as §2

[21] = test system: SETVI; test: Post-emergence herbicidal action against SETVI; format: in vivo, Setaria viridis; conditions: Setaria viridis, 504 h; for pest or weed control at 20 g/ha: dosage 20 g/ha
In short: as §2

[22] = test system: VERPE; test: Post-emergence herbicidal action against VERPE; format: in vivo, Veronica persica; conditions: Veronica persica, 504 h
In short: as §2

[23] = test system: VIOTR; test: Post-emergence herbicidal action against VIOTR; format: in vivo, Viola tricolor; conditions: Viola tricolor, 504 h, 20 g/ha
In short: as §2

[24] = test system: DIGSA; test: Post-emergence herbicidal action against DIGSA; format: in vivo, Digitaria sanguinalis; conditions: Digitaria sanguinalis, 504 h
In short: as §2

[25] = test system: AVEFA; test: Pre-emergence herbicidal action against AVEFA; format: in vivo, Avena fatua; conditions: Avena fatua, 504 h, pre-emergence
In short: as §1

[26] = 20 g/ha, scored visually after 3 weeks, 100% = plants have died, 0% = like control plants

## CNC(=O)c1c(C(F)(F)C(F)(F)F)ccc(C(=O)Nc2nnnn2C)c1Cl [Example 1-165]
[1]
  pest or weed control at 80 g/ha: 100%
  pest or weed control at 20 g/ha: 90%
[2]
  pest or weed control at 80 g/ha: 100%
[3]
  pest or weed control at 20 g/ha: 100%
  pest or weed control at 80 g/ha: 100%
[4]
  pest or weed control at 80 g/ha: 100%
[5]
  pest or weed control at 80 g/ha: 80%
[6]
  pest or weed control at 20 g/ha: 100%
  pest or weed control at 80 g/ha: 100%
[7]
  pest or weed control at 80 g/ha: 100%
[8]
  pest or weed control at 80 g/ha: 90%
[9]
  pest or weed control at 80 g/ha: 100%
[10]
  pest or weed control at 20 g/ha: 80%
  pest or weed control at 80 g/ha: 100%
[11]
  pest or weed control at 20 g/ha: 90%
  pest or weed control at 80 g/ha: 100%
[12]
  pest or weed control at 20 g/ha: 100%
  pest or weed control at 80 g/ha: 100%
[13]
  pest or weed control at 5 g/ha: 90%
  pest or weed control at 20 g/ha: 90%
[14]
  pest or weed control at 5 g/ha: 90%
  pest or weed control at 20 g/ha: 100%
[15]
  pest or weed control at 20 g/ha: 90%
[16]
  pest or weed control at 20 g/ha: 90%
[17]
  pest or weed control at 20 g/ha: 90%
[18]
  pest or weed control at 20 g/ha: 80%
[19]
  pest or weed control at 20 g/ha: 80%
[20]
  pest or weed control at 5 g/ha: 90%
  pest or weed control at 20 g/ha: 90%
[21]
  pest or weed control at 20 g/ha: 90%
[22]
  pest or weed control at 5 g/ha: 80%
  pest or weed control at 20 g/ha: 80%
[23]
  pest or weed control at 20 g/ha: 80%
[24]; 5 g/ha
  pest or weed control at 5 g/ha: 90%
[24]
  pest or weed control at 20 g/ha: 90%

## CCCNC(=O)c1c(C(F)(F)F)ccc(C(=O)Nc2nnnn2CC)c1C [Example 2-32]
[1]
  pest or weed control at 80 g/ha: 100%
  pest or weed control at 20 g/ha: 100%
[2]
  pest or weed control at 80 g/ha: 100%
[2]; [26]
  pest or weed control at 20 g/ha: 90%
[3]
  pest or weed control at 20 g/ha: 100%
  pest or weed control at 80 g/ha: 100%
[25]; 80 g/ha
  pest or weed control at 80 g/ha: 90%
[25]; [26]
  pest or weed control at 20 g/ha: 90%
[4]
  pest or weed control at 80 g/ha: 100%
[5]
  pest or weed control at 80 g/ha: 90%
[6]
  pest or weed control at 20 g/ha: 100%
  pest or weed control at 80 g/ha: 100%
[7]
  pest or weed control at 80 g/ha: 90%
[8]
  pest or weed control at 80 g/ha: 90%
[9]; dosage 20 g/ha
  pest or weed control at 20 g/ha: 100%
[9]
  pest or weed control at 80 g/ha: 100%
[10]
  pest or weed control at 20 g/ha: 90%
  pest or weed control at 80 g/ha: 100%
[11]
  pest or weed control at 20 g/ha: 100%
  pest or weed control at 80 g/ha: 100%
[12]
  pest or weed control at 20 g/ha: 100%
  pest or weed control at 80 g/ha: 100%
[13]
  pest or weed control at 5 g/ha: 90%
  pest or weed control at 20 g/ha: 90%
[14]
  pest or weed control at 5 g/ha: 90%
  pest or weed control at 20 g/ha: 100%
[15]
  pest or weed control at 20 g/ha: 100%
[16]; 5 g/ha
  pest or weed control at 5 g/ha: 90%
[16]
  pest or weed control at 20 g/ha: 100%
[17]; dosage 5 g/ha
  pest or weed control at 5 g/ha: 80%
[17]
  pest or weed control at 20 g/ha: 90%
[18]
  pest or weed control at 20 g/ha: 80%
[19]; dosage 5 g/ha
  pest or weed control at 5 g/ha: 90%
[19]
  pest or weed control at 20 g/ha: 90%
[20]
  pest or weed control at 5 g/ha: 80%
  pest or weed control at 20 g/ha: 90%
[21]; dosage 5 g/ha
  pest or weed control at 5 g/ha: 80%
[21]
  pest or weed control at 20 g/ha: 100%
[22]
  pest or weed control at 5 g/ha: 90%
  pest or weed control at 20 g/ha: 90%
[24]
  pest or weed control at 20 g/ha: 90%
